The values that follow are results of earlier work, collected in patent US7364877B2, “Polynucleotides encoding disorazole polyketide synthase polypeptides” (Kosan Biosciences, Inc., priority 2002, dated 2008).

In data set [1] the test system is mammalian cell. To be noted: mammalian cells.
The test system of data set [2] is filamentous fungi belonging to the Ascomycetes, Basidiomycetes, Zygomycetes, Oomycetes, and Deuteromycetes families. The following applies: including filamentous fungi.
The test system of data set [3] is yeast.
The test system of data set [4] is bacteria.

Regarding `C/C=C/[C@H](O)C(C)(C)[C@@H]1C\C=C/C=C\C=C\[C@H](OC)Cc2nc(co2)C(=O)O[C@H](C(C)(C)[C@@H](O)/C=C/C)C/C=C\[C@H]2O[C@H]2/C=C/C=C\c2nc(co2)C(=O)O1` [Disorazole A, disorazole A], in data set [1], the “mammalian cell cytotoxic activity (MIC)” value was 0.003 to 0.03 ng/mL. In addition, the “activity against different fungi (MIC)” value in data set [2] is 100 to 1000 ng/mL. Further, the activity against yeast result in data set [3] is listed as “not highly active”. Besides, the activity against bacteria entry in data set [4] is given as “not highly active”.
